Experiments:
14-3-3σ = biological target: T1, 14-3-3σ (Homo sapiens, UniProt P31947); experiment: Mass spectrometry dose response, compound binding to 14-3-3σ in the absence of peptide (apo); conditions: 100 nM compound, 100 nM 14-3-3σ
T1 construct: The 14-3-3 σ isoform (full-length for mass spectrometry and fluorescence anisotropy assays, ΔC for crystallography); made in house; host or cells: E. coli Rosetta 2(DE3)pLysS, pPROEX HTb vector
T1 sequence (P31947 1-248): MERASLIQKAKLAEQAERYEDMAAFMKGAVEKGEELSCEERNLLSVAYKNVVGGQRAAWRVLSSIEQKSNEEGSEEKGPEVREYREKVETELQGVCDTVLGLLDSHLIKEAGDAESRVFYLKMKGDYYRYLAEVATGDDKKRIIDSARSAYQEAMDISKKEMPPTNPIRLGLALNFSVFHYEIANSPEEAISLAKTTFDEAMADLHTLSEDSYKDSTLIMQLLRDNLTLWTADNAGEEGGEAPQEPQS
Text: (§1) Two orthogonal assays were developed for screening. For the primary assay, mass spectrometry (MS) was used to monitor the formation of the covalent bond between the compound and the native cysteine (Cys38 on 14-3-3σ) (Figure 1D). The assay was first performed in the absence of peptide to determine binding to 14-3-3σ only (apo screening, D1) and then in the presence of both 14-3-3σ and the peptide as an indication of how much the peptide stabilized compound binding (D2). […] As a secondary assay, fluorescence anisotropy (FA) was used. In this case, compounds were titrated to mixtures of 14-3-3σ and FAM-labeled peptides. […] Thus, the two assays are highly complementary; the MS assay reports on compound binding and the FA assay reports on peptide binding. […]
(§2) Mass spectrometry dose response assays were performed on a Waters Acquity UPLC/ Xevo G2-XS Q-Tof mass spectrometer. A Waters UPLC Protein BEH-C4 Column (300 Å, 1.7 μm, 2.1 mm x 50 mm) was used to desalt the samples prior to application on the mass spectrometer. For 19-point MS dose responses, 50 mM compound stocks in DMSO were serially diluted in 3-fold increment in a master plate, then 1000 nl of the compounds were transferred in the assay plates. Master mixes containing 100 nM full-length wild type 14-3-3σ in the absence or presence of […]
(§3) Assay buffer was TRIS (10 mM, pH 8.0) and final volume per well was 50 μl, with final top concentration of compounds dose response series at 1 mM. The reaction mixtures were incubated for 1h at rt before subjected to MS. Four measurements (1h, 8h, 16h, 24h) were performed for time-course experiments. The injection volume for each sample was 6 μl. 24 μl of sample were needed for the time-course experiments, so the total volume in the assay plate was adjusted to 50 μl, to account for the dead volume in the injections. Data collection and automated processing followed a custom workflow, as previously described.1 z Plots were created using GraphPad Prism with the log(agonist) vs. response (variable slope, four parameters) fitting model. […]

14-3-3σ/ERα [1] = biological target: T2, 14-3-3σ/ERα (Homo sapiens, UniProt P03372+P31947); experiment: Mass spectrometry dose response, compound binding to 14-3-3σ in the presence of ERα phosphopeptide; conditions: 100 nM compound, 100 nM 14-3-3σ, ERα-peptide 2 µM
T2 construct: The 14-3-3 σ isoform (full-length for mass spectrometry and fluorescence anisotropy assays, ΔC for crystallography); made in house; host or cells: E. coli Rosetta 2(DE3)pLysS, pPROEX HTb vector
Text: as §1, §2, §3

14-3-3σ/C-RAF [2] = biological target: T3, 14-3-3σ/C-RAF (Homo sapiens, UniProt P31947); experiment: Mass spectrometry dose response, compound binding to 14-3-3σ in the presence of C-RAF phosphopeptide; conditions: 100 nM compound, 100 nM 14-3-3σ, C-RAF peptide 18 µM
T3 construct: The 14-3-3 σ isoform (full-length for mass spectrometry and fluorescence anisotropy assays, ΔC for crystallography); made in house; host or cells: E. coli Rosetta 2(DE3)pLysS, pPROEX HTb vector
T3 sequence (P31947 1-248): T1 sequence (P31947 1-248)
Text: as §1, §2, §3

14-3-3σ/ERα [3] = biological target: T2, 14-3-3σ/ERα; experiment: Fluorescence anisotropy compound titration, FAM-labeled ERα peptide; assay type: binding; conditions: 10 nM ERα-FAM labeled peptide, 1 µM 14-3-3σ, overnight incubation (24 h); read-out: EC50 value ERα (FA compound titration)
Text: as §1
(§4) diluted in buffer (10 mM HEPES, pH 7.5, 150 mM NaCl, 0.1% Tween20, 1 mg/mL Bovine Serum Albumin (BSA; Sigma-Aldrich). Final DMSO in the assay was always 1%. Dilution series of 14-3-3 proteins or compounds were made in […]
(§5) Compound titrations were made by titrating the compound in a 2-fold dilution series (starting at 500 or 1000 µM) to a mix of fluorescein-labeled peptide (10 nM) and 14-3-3σ (concentration at approximately the EC20 to EC30 value of the protein-peptide complex; 1 µM for ERα and 5 µM for C-RAF). Using the ~EC25 value makes the assay sensitive for measuring an increase in PPI formation. Fluorescence anisotropy measurements were performed directly and after overnight incubation at room temperature. […]
(§6) Wells containing only FAM-peptide were used to set as G-factor at 35 mP. Data reported are at endpoint. EC50 and apparent Kd values were obtained from fitting the data with a four-parameter logistic model (4PL) in GraphPad Prism 7 for Windows. Data was obtained and averaged based on either three (compound titrations) or two (protein titrations) independent experiments.

14-3-3σ/C-RAF [4] = biological target: T3, 14-3-3σ/C-RAF; experiment: Fluorescence anisotropy compound titration, FAM-labeled C-RAF peptide; assay type: binding; conditions: 10 nM C-RAF-FAM labeled peptide, 5 µM 14-3-3σ, overnight incubation; read-out: EC50 value C-RAF (FA compound titration)
Text: as §1, §4, §5, §6

| SMILES | Percentage (%) bound of compound to 14-3-3σ, APO 1h (14-3-3σ) | Percentage (%) bound of compound to 14-3-3σ, APO 8h (14-3-3σ) | Percentage (%) bound of compound to 14-3-3σ, APO 16h (14-3-3σ) | Percentage (%) bound of compound to 14-3-3σ, APO 24h (14-3-3σ) | Percentage (%) bound of compound to 14-3-3σ, ERα 1h (14-3-3σ/ERα [1]) | Percentage (%) bound of compound to 14-3-3σ, ERα 8h (14-3-3σ/ERα [1]) | Percentage (%) bound of compound to 14-3-3σ, ERα 16h (14-3-3σ/ERα [1]) | Percentage (%) bound of compound to 14-3-3σ, ERα 24h (14-3-3σ/ERα [1]) | Percentage (%) bound of compound to 14-3-3σ, CRAF 1h (14-3-3σ/C-RAF [2]) | Percentage (%) bound of compound to 14-3-3σ, CRAF 8h (14-3-3σ/C-RAF [2]) | Percentage (%) bound of compound to 14-3-3σ, CRAF 24h (14-3-3σ/C-RAF [2]; 24h) | Percentage (%) bound of compound to 14-3-3σ, CRAF 24h (14-3-3σ/C-RAF [2]; head prints 24h) | EC50 (14-3-3σ/ERα [3]) | EC50 (14-3-3σ/C-RAF [4]) |
| --- | --- | --- | --- | --- | --- | --- | --- | --- | --- | --- | --- | --- | --- | --- |
| O=C(CCl)NCC1CCN(C(=O)C2(Oc3ccc(Cl)cc3)CCCC2)CC1 [compound 117] | 0% | 0.3% | 0.8% | 1.1% | 5.6% | 15.7% | 34.4% | 63.7% | 10.7% | 21.4% | 47.3% | 33.7% | 15 ± 2 µM | 32 ± 8 µM |
| O=C(CCl)NCC1CCN(C(=O)C2(Oc3ccccc3)CCCC2)CC1 [compound 119] | 0% | 1.0% | 1.0% | 2.5% | 1.9% | 5.3% | 10.9% | 21.0% | 6.2% | 19.7% | 53.6% | 28.5% | 24 ± 2 µM | 18 ± 0.3 µM |
| O=C(CCl)NCC1CCN(C(=O)C2(Nc3ccccc3)CCCC2)CC1 [compound 120] | 0% | 0% | 0% | 0% | 0% | 0% | 0% | 4.5% | 0% | 0% | 0% | 0% | > 150 µM | > 150 µM |
| O=C(CCl)NCC1CCN(C(=O)C2(Oc3ccc(Cl)cc3)CCCCC2)CC1 [compound 122] | 0% | 0% | 0.8% | 1.3% | 1.6% | 7.1% | 11.5% | 32.3% | 1.5% | 4.8% | 17.5% | 8.9% | 55 ± 14 µM | > 150 µM |
| O=C(CCl)NCC1CCN(C(=O)C2(Nc3ccc(Cl)cc3)CCCCC2)CC1 [compound 123] | 0.0% | 1.0% | 1.0% | 1.9% | 3.4% | 8.3% | 20.8% | 63.9% | 1.0% | 1.9% | 3.5% | 1.9% | 8 ± 1 µM | 59 ± 4 µM |
| O=C(CCl)NCC1CCN(C(=O)C2(Oc3ccc(Cl)cc3)CCC(F)(F)CC2)CC1 [compound 124] | 0% | 1.0% | 1.4% | 1.6% | 7.4% | 15.3% | 33.4% | 66.9% | 2.0% | 2.9% | 15.3% | 9.1% | 18 ± 0.4 µM | > 150 µM |
| O=C(CCl)NCC1CCN(C(=O)C2(Nc3ccc(Cl)cc3)CCC(F)(F)CC2)CC1 [compound 125] | 0.4% | 1.1% | 2.1% | 6.2% | 13.8% | 30.0% | 64.6% | 87.5% | 4.9% | 7.6% | 23.2% | 12.4% | 12 ± 2 µM | > 150 µM |
| O=C(CCl)NCC1CCN(C(=O)C2(Oc3ccc(Cl)cc3)CCOCC2)CC1 [compound 126] | 0% | 0% | 0% | 1.0% | 1.7% | 6.2% | 9.1% | 15.1% | 0.0% | 1.0% | 4.7% | 3.6% | 9 ± 2 µM | > 150 µM |

— publication PMC10515640, “Structure-Based Optimization of Covalent, Small-Molecule Stabilizers of the 14-3-3σ/ERα Protein–Protein Interaction from Nonselective Fragments” (Journal of the American Chemical Society, 2023)
